The test concerns the target T1, recombinant human α1D receptor (Homo sapiens, UniProt P25100).
T1 construct: expressed in transfected cells; host or cells: HEK293
T1 sequence (P25100 1-572): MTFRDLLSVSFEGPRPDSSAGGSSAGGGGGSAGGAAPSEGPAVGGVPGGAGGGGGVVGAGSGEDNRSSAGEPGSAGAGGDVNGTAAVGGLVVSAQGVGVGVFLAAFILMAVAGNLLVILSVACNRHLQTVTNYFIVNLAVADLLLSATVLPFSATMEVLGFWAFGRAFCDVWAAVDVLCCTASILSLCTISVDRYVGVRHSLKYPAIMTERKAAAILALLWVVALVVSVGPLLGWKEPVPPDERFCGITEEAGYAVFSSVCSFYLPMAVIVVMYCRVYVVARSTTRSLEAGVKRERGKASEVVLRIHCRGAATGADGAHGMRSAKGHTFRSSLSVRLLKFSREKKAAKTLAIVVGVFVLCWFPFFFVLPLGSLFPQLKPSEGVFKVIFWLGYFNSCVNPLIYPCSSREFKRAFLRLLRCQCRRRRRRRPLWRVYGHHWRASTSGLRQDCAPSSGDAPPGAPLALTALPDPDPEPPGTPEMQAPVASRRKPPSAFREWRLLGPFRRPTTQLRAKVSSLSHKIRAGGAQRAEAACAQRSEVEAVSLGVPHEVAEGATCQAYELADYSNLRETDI
Nature of the test: Adrenergic α1D selectivity binding assay ([3H]-prazosin). Conditions: inhibition of [3H]-prazosin (0.3 nM) binding, HEK293 membranes; for IC50: read-out: α1 bind pIC50 (converted). The method in brief:
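Displacement of [3H]-prazosin (0.3 nM) from recombinant human α1D receptor in HEK293-cell membranes, 2 h at room temperature, pH 7.4 HEPES/EDTA/gelatin buffer. Filtration and scintillation counting, non-specific binding set with 10 μM BMY7378; four-parameter logistic fit gives pIC50.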

Each structure is given as a SMILES string. Structures can show the parent of a compound that is named as a salt.

Consider `O=C(CCNCCc1nc2ccccc2[nH]1)N(CCNCCc1ccc(O)c2[nH]c(=O)sc12)C1CCCCC1` [Example 77, N^3-[2-(1H-Benzimidazol-2-yl)ethyl]-N^1-cyclohexyl-N^1-(2-{[2-(4-hydroxy-2-oxo-2,3-dihydro-1,3-benzothiazol-7-yl)ethyl]amino}ethyl)-β-alaninamide tris-trifluoroacetic acid salt], for which the IC50 is 251 nM.
Same read-out and setting: the value for `O=C(CCNCCc1cc(F)cc(F)c1)N(CCNCCc1ccc(O)c2[nH]c(=O)sc12)C1CCCCC1` [Example 78, N^1-Cyclohexyl-N^3-[2-(3,5-difluorophenyl)ethyl]-N^1-(2-{[2-(4-hydroxy-2-oxo-2,3-dihydro-1,3-benzothiazol-7-yl)ethyl]amino}ethyl)-β-alaninamide bis-trifluoroacetic acid salt] was 251 nM.
As for `O=C(CCNCCc1cc(F)ccc1F)N(CCNCCc1ccc(O)c2[nH]c(=O)sc12)C1CCCCC1` [Example 79, N^1-Cyclohexyl-N^3-[2-(2,5-difluorophenyl)ethyl]-N^1-(2-{[2-(4-hydroxy-2-oxo-2,3-dihydro-1,3-benzothiazol-7-yl)ethyl]amino}ethyl)-β-alaninamide bis-trifluoroacetic acid salt], the IC50 is 63.1 nM.
The same measure, in the same setting: then `O=C(CCNCCc1cccc(F)c1F)N(CCNCCc1ccc(O)c2[nH]c(=O)sc12)C1CCCCC1` [Example 81, N^1-Cyclohexyl-N^3-[2-(2,3-difluorophenyl)ethyl]-N^1-(2-{[2-(4-hydroxy-2-oxo-2,3-dihydro-1,3-benzothiazol-7-yl)ethyl]amino}ethyl)-β-alaninamide bis-trifluoroacetic acid salt], with 200 nM; and `O=C(CCNCCc1cccc(C(F)(F)F)c1)N(CCNCCc1ccc(O)c2[nH]c(=O)sc12)C1CCCCCC1` [Example 82, N^1-Cycloheptyl-N^1-(2-{[2-(4-hydroxy-2-oxo-2,3-dihydro-1,3-benzothiazol-7-yl)ethyl]amino}ethyl)-N^3-{2-[3-(trifluoromethyl)phenyl]ethyl}-β-alaninamide bis-trifluoroacetic acid salt], with 251 nM; and `O=C(CCNCCc1cc(F)ccc1F)N(CCNCCc1ccc(O)c2[nH]c(=O)sc12)C1CCCCCC1` [Example 83, N^1-Cycloheptyl-N^3-[2-(2,5-difluorophenyl)ethyl]-N^1-(2-{[2-(4-hydroxy-2-oxo-2,3-dihydro-1,3-benzothiazol-7-yl)ethyl]amino}ethyl)-β-alaninamide bis-trifluoroacetic acid salt], with 63.1 nM.
The same measure, in the same setting: then `O=C(CCNCCc1c(F)cccc1F)N(CCNCCc1ccc(O)c2[nH]c(=O)sc12)C1CCCCCC1` [Example 84, N^1-Cycloheptyl-N^3-[2-(2,6-difluorophenyl)ethyl]-N^1-(2-{[2-(4-hydroxy-2-oxo-2,3-dihydro-1,3-benzothiazol-7-yl)ethyl]amino}ethyl)-β-alaninamide bis-trifluoroacetic acid salt], with 100 nM.
`O=C(CCNCCc1cc(F)cc(F)c1)N(CCNCCc1ccc(O)c2[nH]c(=O)sc12)C1CCCCC1` [Example 92, N-Cyclohexyl-N^3-[2-(3,5-difluorophenyl)ethyl]-N-(2-{[2-(4-hydroxy-2-oxo-2,3-dihydro-1,3-benzothiazol-7-yl)ethyl]amino}ethyl)-β-alaninamide dihydrobromide salt]: the “α1 bind pIC50” value was 6.6.
The same measure, in the same setting: then `O=C(CCNCCc1cccc(F)c1F)N(CCNCCc1ccc(O)c2[nH]c(=O)sc12)C1CCCCC1` [Example 93, N-Cyclohexyl-N^3-[2-(2,3-difluorophenyl)ethyl]-N-(2-{[2-(4-hydroxy-2-oxo-2,3-dihydro-1,3-benzothiazol-7-yl)ethyl]amino}ethyl)-β-alaninamide dihydrobromide salt], with 6.7.
The same measure, in the same setting: then `O=C(CCNCCc1ccc(Cl)c(Cl)c1)N(CCNCCc1ccc(O)c2[nH]c(=O)sc12)C1CCOCC1` [Example 94, N^3-[2-(3,4-Dichlorophenyl)ethyl]-N-(2-{[2-(4-hydroxy-2-oxo-2,3-dihydro-1,3-benzothiazol-7-yl)ethyl]amino}ethyl)-N-(tetrahydro-2H-pyran-4-yl)-β-alaninamide dihydrobromide salt], with 6.2; and `O=C(CCNCCc1cccc(F)c1)N(CCNCCc1ccc(O)c2[nH]c(=O)sc12)C1CCCCCC1` [Example 95, N-Cycloheptyl-N^3-[2-(3-fluorophenyl)ethyl]-N-(2-{[2-(4-hydroxy-2-oxo-2,3-dihydro-1,3-benzothiazol-7-yl)ethyl]amino}ethyl)-β-alaninamide dihydromide salt], with 6.8.
`O=C(CCNCCc1cccc(F)c1)N(CCNCCc1ccc(O)c2[nH]c(=O)sc12)C1CCCCC1` [Example 96, N-Cyclohexyl-N^3-[2-(3-fluorophenyl)ethyl]-N-(2-{[2-(4-hydroxy-2-oxo-2,3-dihydro-1,3-benzothiazol-7-yl)ethyl]amino}ethyl)-β-alaninamide dihydrobromide salt]: the IC50 was 200 nM.
`O=C(CCNCCc1ccccc1)N(CCNCCc1ccc(O)c2[nH]c(=O)sc12)C1CCCCCC1` [Example 98, N-Cycloheptyl-N-(2-{[2-(4-hydroxy-2-oxo-2,3-dihydro-1,3-benzothiazol-7-yl)ethyl]amino}ethyl)-N^3-(2-phenylethyl)-β-alaninamide dihydrobromide salt]: the IC50 is 63.1 nM.
On the same count and under the same terms, then `O=C(NCc1ccccc1)c1ccc(CCNCCC(=O)N(CCNCCc2ccc(O)c3[nH]c(=O)sc23)C2CCCCCC2)cc1` [Example 100, N-Benzyl-4-[2-({3-[cycloheptyl(2-{[2-(4-hydroxy-2-oxo-2,3-dihydro-1,3-benzothiazol-7-yl)ethyl]amino}ethyl)amino]-3-oxopropyl}amino)ethyl]benzamide bis-trifluoroacetic acid salt], with 251 nM.
On the same count and under the same terms, the value for `CCCC[C@@H](C)N(CCNCCc1ccc(O)c2[nH]c(=O)sc12)C(=O)CCNCCc1ccccc1` [Example 101, N-(2-{[2-(4-Hydroxy-2-oxo-2,3-dihydro-1,3-benzothiazol-7-yl)ethyl]amino}ethyl)-N-[(1R)-1-methylpentyl]-N^3-(2-phenylethyl)-β-alaninamide bis-trifluoroacetic acid salt] was 50.1 nM.
Still for that read-out and setting: the value for `CCCC[C@H](C)N(CCNCCc1ccc(O)c2[nH]c(=O)sc12)C(=O)CCNCCc1ccccc1` [Example 102, N-(2-{[2-(4-Hydroxy-2-oxo-2,3-dihydro-1,3-benzothiazol-7-yl)ethyl]amino}ethyl)-N-[(1S)-1-methylpentyl]-N^3-(2-phenylethyl)-β-alaninamide bis-trifluoroacetic acid salt] was 100 nM; that for `CC(CN(C(=O)CCNCCc1cccc(F)c1)C1CCCCCC1)NCCc1ccc(O)c2[nH]c(=O)sc12` (stereo not drawn) [Example 104, N-Cycloheptyl-N^3-[2-(3-fluorophenyl)ethyl]-N-(2-{[2-(4-hydroxy-2-oxo-2,3-dihydro-1,3-benzothiazol-7-yl)ethyl]amino}propyl)-β-alaninamide bis-trifluoroacetic acid salt] was 100 nM.
Consider `CC(CN(C(=O)CCNCCc1ccccc1)C1CCCCC1)NCCc1ccc(O)c2[nH]c(=O)sc12` (stereo not drawn) [Example 105, N-Cyclohexyl-N-(2-{[2-(4-hydroxy-2-oxo-2,3-dihydro-1,3-benzothiazol-7-yl)ethyl]amino}propyl)-N^3-(2-phenylethyl)-β-alaninamide bis-trifluoroacetic acid salt], for which the IC50 is 79.4 nM.

The values are drawn from patent US20100022491A1, “4-HYDROXY-2-OXO-2,3-DIHYDRO-1,3-BENZOTHIAZOL-7YL COMPOUNDS FOR MODULATION OF B2-ADRENORECEPTOR ACTIVITY” (ASTRAZENECA AB, priority 2006, published 2010).
